Literature values in patent publication US11123365B2, “Compositions comprising palmitoylethanolamide and hydrogen water, and methods thereof” (Perricone Hydrogen Water Company, LLC, priority 2019, dated 2021).

In the case of `CCCCCCCCCCCCCCCC(=O)NCCO` [palmitoylethanolamide], the solubility in water is given as “less than 20 mM”.
